In experiment [1] the target is T1, peripheral opioid receptors (Mus musculus, UniProt P42866).
T1 construct: Mice maintained (6 mice/cage) on 0.01M saccharin water with 1 g/1 morphine sulfate; from tissue; host or cells: living morphine-maintained mice (in vivo test; endogenous receptor)
Put plainly: precipitated diarrhea in morphine-maintained mice (peripheral opioid activity) and comparison with the writhing test. As to conditions: for Ratio (AD50 mouse writhing test / ED50 mouse diarrhea test): higher ratio = greater relative antagonism of peripheral opioid receptors; for ED50: mouse, 0.5 h, morphine-maintained mice, antagonist subcutaneous or oral, 30 min observation. Type of experiment: in vivo. As for the experimental part:
Determinations of peripheral opioid activity were conducted. Mice maintained (6 mice/cage) on 0.01M saccharin water with 1 g/1 morphine sulfate for a minimum of 10 days with mice averaging 3.0^+ g water/mouse/day for at least three days are used as subjects. The morphine water was removed 45 min. prior to injection with the proposed opioid antagonist. Initial testing consisted of 5 mice/dose of compound. The antagonist was given by the subcutaneous or oral, route of administration,and the mice were placed in 11-14"×4 7/12 I.D. clear plastic cylinders with white paper towels used for a floor.
The mice were then monitored visually for 30 minutes post-injection for the presence of jumping and of diarrhea. Jumping was scored as positive if at least one jump occurred in 30 min. Diarrhea was scored as positive when feces were moist enough to stain the white paper at the base of the cylinder. After 30 minutes of testing, the mice were placed back in original cages, put back on morphine water, and not tested again for 48 hrs. Lower doses of the antagonist compounds were tested until threshold doses for diarrhea were determined. Diarrhea is a peripherally mediated sign of precipitated opiate abstinence.
The extent of the effect on peripheral activity compared to central activity of the present compounds can-be determined by comparing the AD50 for the mouse writhing test with the ED50 for the mouse diarrhea test. The higher the ratio, the greater the relative antagonism of the peripheral opioid receptors by a particular compound.
(In general: In writhing tests, fewer writhes than in controls are read as antinociception.)

The target in experiment [2] is T2, opioid receptor (Mus musculus, UniProt P42866).
T2 construct: Five CF-1 male mice (Charles River, Portage, Mich.); from tissue; host or cells: living CF-1 male mice (in vivo test; endogenous receptor)
Put plainly: mouse writhing analgesis test: block of morphine-induced analgesia. Type of experiment: in vivo, CF-1 male mice. The arrangement: unit not given here. As to conditions: dose of antagonist that reduced the inhibition of writhing produced by 1.25 mg/kg morphine sulfate to 50%; subcutaneous, 20 min before acetic acid. As for the experimental part:
In order to determine in vivo opioid receptor antagonism, the mouse writhing analgesis test was used. Test compounds were measured for their ability to block morphine-induced analgesia.
Five CF-1 male mice (Charles River, Portage, Mich.), weighing approximately 20 g after being fasted overnight, were observed simultaneously for the writhing response. The writhing response was defined as a contraction of the abdominal musculature, followed by the extension of the hind limbs, and was induced by the intraperitoneal adminstration of 0.6% acetic acid in a volumne of 1 ml/100 g body weight. The observation period was 10 min. in duration, beginning 5 min. after injection of acetic acid. The percent inhibition of writhing was calculated from the average number of writhes in the control (non-drug) group. Each data point is the mean (±standarderror) for five mice. The ED50 was defined as the dose of agonist that inhibited mean writhing by 50%. […] Each mouse was only used once. All drugs were administered subcutaneously (1 ml/100 g bwt) 20 min. before the injection of acetic acid.

Experiment [3] has as its target T3, mu receptor (Rattus norvegicus, UniProt P33535).
T3 construct: rat whole brain minus cerebellum for mu was homogenized; from tissue; host or cells: brain of male Sprague Dawley rats, whole brain minus cerebellum, homogenate fraction
Put plainly: opioid receptor binding assay, [3H] NAL (tritiated naloxone), mu receptor. The note with it: for inhibition at 0.01 µM / inhibition at 0.1 µM: 20 min; for inhibition at 0.01 µM: read-out: % displacement at 10 nM, 10 nM test compound. The arrangement: species or system rat (Male Sprague Dawley), brain minus cerebellum. Here is the method:
This assay was conducted by the following procedure.
Male Sprague Dawley rats for mu site experiments were sacrificed via decapitation and the brains were removed. The brain tissue, rat whole brain minus cerebellum for mu was homogenized in a Teflon and glass tissue homogenizer. A supernatant I, pellet IV, fraction was frozen in a nitrogen freezer at 1.33 g/ml concentration and stored for not longer than five weeks prior to use. Pellets were rehydrated with physiological buffer prior to use.
The reaction was initiated by the addition of the resuspended tissue which had been preincubated at 37° C. for 20 minutes. The reaction mixture was incubated in a 37° C. water bath for 20 minutes. The reaction was terminated by rapid filtration, (Brandel Cell Harvestor), through Whatman GF/B glass filters that had been presoaked in Krebs-Hepes buffer pH 7.4. The filters were then washed 2x with 5 ml of ice cold Krebs-Hepes buffer pH 7.4. Washed filters were placed in scintillation vials and 10 ml RedySolv, (Brandel), was added and samples counted in a Searle D-300 beta counter. Means and standard error statistics were calculated for triplicate experimental determinations in certain cases. The incubation time for the reaction mixture was 20 minutes at 37° C.
Ki values were calculated using a minitab statistical program according to the following formula: [formula] wherein IC50 is the concentration at which 50% of the ^3 H ligand is displaced by the test compounds and KD is the dissociation constant for the ^3 H ligand at the receptor site. KD can be determined as described by Bennett, "Methods in Binding Studies", Neurotransmitter Receptor Binding, Yamamura, et al., ed., p. 57-90, Raven Press, N.Y. (1978) incorporated herein by reference.
In the Table, column 1 sets forth the Example Number of the compound evaluated, column 2 the Ki value in nanomolar (nM) at the mu receptor and columns 3 and 4 the percent displacement by the test compound at the indicated concentration, i.e., 10 nm or 100 nm.

[4] abbreviates: read-out: % displacement at 100 nM, 100 nM test compound, [3H] naloxone 0.5 nM.

Experimental findings from patent US5250542A, “Peripherally selective piperidine carboxylate opioid antagonists” (Eli Lilly and Company, priority 1992, dated 1993) are described below.

The structures appear in SMILES notation. pKi: −log10 of the molar value. Structures can show the parent of a compound that is named as a salt. Where two headings read alike, the source gives them in different places. A value given as a limit tells only on which side of the number the result lay.

T1 sequence (P42866 whole entry): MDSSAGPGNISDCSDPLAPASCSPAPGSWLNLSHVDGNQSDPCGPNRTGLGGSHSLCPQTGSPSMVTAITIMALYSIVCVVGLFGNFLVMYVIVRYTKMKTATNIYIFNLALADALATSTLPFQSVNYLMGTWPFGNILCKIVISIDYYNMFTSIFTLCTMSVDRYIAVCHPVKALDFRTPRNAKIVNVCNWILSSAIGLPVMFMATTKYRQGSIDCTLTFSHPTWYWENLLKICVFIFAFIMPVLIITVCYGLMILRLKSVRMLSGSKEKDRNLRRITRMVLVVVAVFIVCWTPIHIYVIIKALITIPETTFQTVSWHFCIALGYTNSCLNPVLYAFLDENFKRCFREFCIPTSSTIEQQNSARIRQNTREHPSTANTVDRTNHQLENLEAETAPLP
T2 sequence (P42866 whole entry): as above
T3 sequence (P33535 whole entry): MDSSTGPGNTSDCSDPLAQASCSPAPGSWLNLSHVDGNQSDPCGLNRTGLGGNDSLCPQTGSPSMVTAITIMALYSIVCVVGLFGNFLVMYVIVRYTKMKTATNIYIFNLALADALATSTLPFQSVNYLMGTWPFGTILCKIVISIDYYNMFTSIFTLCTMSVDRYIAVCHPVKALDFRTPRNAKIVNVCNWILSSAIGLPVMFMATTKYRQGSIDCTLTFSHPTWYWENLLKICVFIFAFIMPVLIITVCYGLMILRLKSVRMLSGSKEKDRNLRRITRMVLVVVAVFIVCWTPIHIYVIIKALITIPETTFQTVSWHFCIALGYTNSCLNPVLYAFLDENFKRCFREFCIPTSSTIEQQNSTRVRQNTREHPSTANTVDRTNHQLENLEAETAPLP

Take `C[C@H]1CN(CCC(C(=O)O)C2CCCCC2)CC[C@@]1(C)c1cccc(O)c1` (relative stereo) [Example 9B, hydrochloride]: in experiment [1], the “Ratio (AD50 mouse writhing test / ED50 mouse diarrhea test)” value is reported as 75 and it took a dose of 0.02 mg/kg to reach the 50% effect level (ED50). In experiment [2], this compound showed an AD50 of 1.50. For the same compound, the negative logarithm of the Ki (pKi) in experiment [3] was 9.18. For the same compound, the inhibition at 0.01 µM in experiment [3] ([3H] naloxone 0.5 nM) turned out to be 90%. For the same compound, the inhibition at 0.1 µM in experiment [3] (setting [4]) was determined as 93%.

Regarding `C[C@H]1CN(CCC(C(=O)N(C)C)c2ccccc2)CC[C@@]1(C)c1cccc(O)c1` (relative stereo) [Example 10, trans-4-[(3-hydroxyphenyl)-3,4-dimethyl-1-piperidinyl]-2-phenyl-N,N-dimethylbutanamide hydrochloride], in experiment [1], the “Ratio (AD50 mouse writhing test / ED50 mouse diarrhea test)” value came out at 9 and the 50% effect level (ED50) was put at a dose of 0.06 mg/kg. The compound further displayed an AD50 in experiment [2] of 0.54. Moreover, in experiment [3], the pKi is 8.93. Moreover, in experiment [3] ([3H] naloxone 0.5 nM), the inhibition at 0.01 µM came out at 89%. Moreover, the inhibition at 0.1 µM in experiment [3] (setting [4]) was determined as 100%.

With `CCOC(=O)CNC(=O)C(CCN1CC[C@@](C)(c2cccc(O)c2)[C@@H](C)C1)c1ccccc1` (relative stereo) [Example 11, 2-[[4-4-(3-hydroxyphenyl)-3,4-dimethyl-1-piperidinyl]-1-oxo-2-phenylbutyl]amino]-acetic acid ethyl ester monohydrochloride], in experiment [1], the “Ratio (AD50 mouse writhing test / ED50 mouse diarrhea test)” value is reported as 141 and it took a dose of 0.017 mg/kg to reach the 50% effect level (ED50). For the same compound, the AD50 in experiment [2] came out at 2.4. The compound also had a pKi in experiment [3] of 9.52. Besides, the inhibition at 0.01 µM in experiment [3] ([3H] naloxone 0.5 nM) is 81%. Moreover, the inhibition at 0.1 µM in experiment [3] (setting [4]) stood at 89%.

Consider `C[C@H]1CN(CCC(C(=O)NCC(=O)O)c2ccccc2)CC[C@@]1(C)c1cccc(O)c1` (relative stereo) [Example 12, 2-[[4-[4-(3-hydroxyphenyl)-3,4-dimethyl-1-piperidinyl]-2-phenyl-1-oxobutyl]amino]ethanoic acid monohydrate], for which, in experiment [1], the “Ratio (AD50 mouse writhing test / ED50 mouse diarrhea test)” value is reported as 2667 and the ED50 was determined as 0.015 mg/kg. Moreover, the AD50 in experiment [2] was 40. The compound further had a pKi in experiment [3] of 8.72. Moreover, in experiment [3] ([3H] naloxone 0.5 nM), the inhibition at 0.01 µM worked out at 84%. Moreover, the inhibition at 0.1 µM in experiment [3] (read-out: % displacement at 100 nM) is 94%.

Take `CCNC(=O)CNC(=O)C(CCN1CC[C@@](C)(c2cccc(O)c2)[C@@H](C)C1)c1ccccc1` (relative stereo) [Example 15, N-ethyl-2-[[4-[4-(3-hydroxyphenyl)-3,4-dimethyl-1-piperidinyl]]-2-phenyl-1-oxobutylamino]-acetamide monohydrochloride monohydrate]: in experiment [1], the “Ratio (AD50 mouse writhing test / ED50 mouse diarrhea test)” value is reported as above 133 and the ED50 came out at 0.3 mg/kg. The same compound returned an AD50 in experiment [2] above 40. The pKi in experiment [3] is 8.97. In addition, in experiment [3] ([3H] naloxone 0.5 nM), the inhibition at 0.01 µM was determined as 99%. Moreover, the inhibition at 0.1 µM in experiment [3] (setting [4]) worked out at 100%.

Consider `C[C@H]1CN(CCC(C(=O)NCCC(N)=O)C2CCCCC2)CC[C@@]1(C)c1cccc(O)c1` (relative stereo) [Example 17, monohydrochloride], for which, in experiment [1], the “Ratio (AD50 mouse writhing test / ED50 mouse diarrhea test)” value is given as above 667 and the ED50 was 0.06 mg/kg. Further, the AD50 in experiment [2] was above 40. This compound also showed a pKi in experiment [3] of 9.37. For the same compound, the inhibition at 0.01 µM in experiment [3] ([3H] naloxone 0.5 nM) worked out at 97%. In experiment [3] (setting [4]), the inhibition at 0.1 µM is 100%.

On to `CNC(=O)CCNC(=O)C(CCN1CC[C@@](C)(c2cccc(O)c2)[C@@H](C)C1)C1CCCCC1` (relative stereo) [Example 18, N-[3-(methylamino)-3-oxopropyl]-4-[4-(3-hydroxyphenyl)-3,4-dimethyl-1-piperidinyl]-2-cyclohexyl-butanamide monohydrochloride], for which, in experiment [1], the “Ratio (AD50 mouse writhing test / ED50 mouse diarrhea test)” value is reported as above 888 and the 50% effective dose (ED50) was 0.045 mg/kg. In experiment [2], this compound registered an AD50 above 40. The pKi in experiment [3] was 9.37. Further, the inhibition at 0.01 µM in experiment [3] ([3H] naloxone 0.5 nM) was 97%.

Consider `C[C@H]1CN(CCC(C(=O)NCC(N)=O)C2CCCCC2)CC[C@@]1(C)c1cccc(O)c1` (relative stereo) [Example 20, N-(2-amino-2-oxoethyl)-4-[4-(3hydroxyphenyl)-3,4-dimethyl-1-piperidinyl]-2-cyclohexylbutanamide hydrochloride monohydrate], for which, in experiment [1], the “Ratio (AD50 mouse writhing test / ED50 mouse diarrhea test)” value was 802 and it took a dose of 0.004 mg/kg to reach the 50% effect level (ED50). The AD50 in experiment [2] is on record as 32.1. In experiment [3], this compound had a pKi of 9.11. Further, the inhibition at 0.01 µM in experiment [3] ([3H] naloxone 0.5 nM) stood at 98%. For the same compound, in experiment [3] (setting [4]), the inhibition at 0.1 µM turned out to be 100%.

Take `CNC(=O)CNC(=O)C(CCN1CC[C@@](C)(c2cccc(O)c2)[C@@H](C)C1)C1CCCCC1` (relative stereo) [Example 21, N-[2-(methylamino)-2-oxoethyl]-4-[4-(3-hydroxyphenyl)-3,4-dimethyl-1-piperidinyl]-2-cyclohexyl butanamide hydrochloride]: in experiment [1], the “Ratio (AD50 mouse writhing test / ED50 mouse diarrhea test)” value is listed as above 125 and it took a dose of 0.16 mg/kg to reach the 50% effect level (ED50). The compound further showed an AD50 in experiment [2] above 20. The pKi in experiment [3] was 9.35. Moreover, the inhibition at 0.01 µM in experiment [3] ([3H] naloxone 0.5 nM) was determined as 96%. Moreover, the inhibition at 0.1 µM in experiment [3] (setting [4]) came to 100%.

Consider `CCNC(=O)CNC(=O)C(CCN1CC[C@@](C)(c2cccc(O)c2)[C@@H](C)C1)C1CCCCC1` (relative stereo) [Example 22, N-[2-(ethylamino)-2-oxoethyl]-4-[4-(3-hydroxyphenyl)-3,4-dimethyl-1-piperidinyl]-2-cyclohexyl butanamide hydrochloride], for which, in experiment [1], the “Ratio (AD50 mouse writhing test / ED50 mouse diarrhea test)” value is reported as above 500 and the ED50 came out at 0.08 mg/kg. The compound also registered an AD50 in experiment [2] above 40. Further, in experiment [3], the pKi is 9.48. The inhibition at 0.01 µM in experiment [3] ([3H] naloxone 0.5 nM) stood at 100%. The inhibition at 0.1 µM in experiment [3] (setting [4]) amounted to 96%.

Take `CCOC(=O)CCCNC(=O)C(CCN1CC[C@@](C)(c2cccc(O)c2)[C@@H](C)C1)C1CCCCC1` (relative stereo) [Example 23, 4-[2-cyclohexyl-4-[4-(3-hydroxyphenyl)-3,4-dimethyl-1-piperidinyl]-1-oxobutyl]amino]-butanoic acid ethyl ester monohydrochloride monohydrate]: in experiment [1], the “Ratio (AD50 mouse writhing test / ED50 mouse diarrhea test)” value was above 140 and it took a dose of 0.14 mg/kg to reach the 50% effect level (ED50). The same compound gave an AD50 in experiment [2] above 20. In experiment [3], this compound showed a pKi of 8.78. For the same compound, in experiment [3] ([3H] naloxone 0.5 nM), the inhibition at 0.01 µM worked out at 100%. Besides, in experiment [3] (setting [4]), the inhibition at 0.1 µM amounted to 96%.

As usually defined, the ED50 is the dose that gives a 50% effect, or the effect in half of the subjects. The pKi is the negative decadic logarithm of the Ki, by convention in mol/L.
